Test results as given in PubChem BioAssay (NCI).
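Tested at 5 concentrations; 48 h exposure; 96-well plates; endpoints linearly interpolated, else capped at highest concentration. TGI: total growth inhibition.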

Legend:
Experiment in all cases: growth of human tumour cells (NCI), 48 h
786-0 renal = system: 786-0 renal
A498 renal = system: A498 renal
A549 NSCLC = system: A549 NSCLC
ACHN renal = system: ACHN renal
CAKI-1 renal = system: CAKI-1 renal
CCRF-CEM leukemia = system: CCRF-CEM leukemia
DLD-1 colon = system: DLD-1 colon
DMS 114 small cell lung = system: DMS 114 small cell lung
DMS 273 small cell lung = system: DMS 273 small cell lung
EKVX NSCLC = system: EKVX NSCLC
HCT-116 colon = system: HCT-116 colon
HCT-15 colon = system: HCT-15 colon
HL-60(TB) leukemia = system: HL-60(TB) leukemia
HOP-62 NSCLC = system: HOP-62 NSCLC
HT29 colon = system: HT29 colon
K-562 leukemia = system: K-562 leukemia
KM12 colon = system: KM12 colon
LXFL 529 NSCLC = system: LXFL 529 NSCLC
M14 melanoma = system: M14 melanoma
M19-MEL melanoma = system: M19-MEL melanoma
MOLT-4 leukemia = system: MOLT-4 leukemia
NCI-H226 lung = system: NCI-H226 lung
NCI-H23 lung = system: NCI-H23 lung
NCI-H460 lung = system: NCI-H460 lung
NCI-H522 lung = system: NCI-H522 lung
OVCAR-3 ovarian = system: OVCAR-3 ovarian
OVCAR-4 ovarian = system: OVCAR-4 ovarian
OVCAR-5 ovarian = system: OVCAR-5 ovarian
OVCAR-8 ovarian = system: OVCAR-8 ovarian
RXF 393 renal = system: RXF 393 renal
SF-268 CNS = system: SF-268 CNS
SF-295 CNS = system: SF-295 CNS
SF-539 CNS = system: SF-539 CNS
SK-MEL-2 melanoma = system: SK-MEL-2 melanoma
SK-MEL-28 melanoma = system: SK-MEL-28 melanoma
SK-MEL-5 melanoma = system: SK-MEL-5 melanoma
SK-OV-3 ovarian = system: SK-OV-3 ovarian
SN12C renal = system: SN12C renal
SNB-19 CNS = system: SNB-19 CNS
SNB-75 CNS = system: SNB-75 CNS
SNB-78 CNS = system: SNB-78 CNS
SR leukemia = system: SR leukemia
SW-620 colon = system: SW-620 colon
TK-10 renal = system: TK-10 renal
U251 CNS = system: U251 CNS
UACC-257 melanoma = system: UACC-257 melanoma
UACC-62 melanoma = system: UACC-62 melanoma
UO-31 renal = system: UO-31 renal
XF 498 CNS = system: XF 498 CNS
COLO 205 colon = system: COLO 205 colon
HCC-2998 colon = system: HCC-2998 colon
HOP-92 NSCLC = system: HOP-92 NSCLC
IGROV1 ovarian = system: IGROV1 ovarian
KM20L2 colon = system: KM20L2 colon
LOX IMVI melanoma = system: LOX IMVI melanoma
MALME-3M melanoma = system: MALME-3M melanoma
RPMI-8226 leukemia = system: RPMI-8226 leukemia

SMILES: CCOC(=O)C1CCCCN1C(=O)OCc1ccccc1 (stereo unspecified)
- TGI (786-0 renal): > 100 µM
- TGI (A498 renal): > 100 µM
- TGI (A549 NSCLC): > 100 µM
- TGI (ACHN renal): > 100 µM
- TGI (CAKI-1 renal): > 100 µM
- TGI (CCRF-CEM leukemia): > 100 µM
- TGI (DLD-1 colon): > 100 µM
- TGI (DMS 114 small cell lung): > 100 µM
- TGI (DMS 273 small cell lung): > 100 µM
- TGI (EKVX NSCLC): > 100 µM
- TGI (HCT-116 colon): > 100 µM
- TGI (HCT-15 colon): > 100 µM
- TGI (HL-60(TB) leukemia): > 100 µM
- TGI (HOP-62 NSCLC): > 100 µM
- TGI (HT29 colon): > 100 µM
- TGI (K-562 leukemia): > 100 µM
- TGI (KM12 colon): > 100 µM
- TGI (LXFL 529 NSCLC): > 100 µM
- TGI (M14 melanoma): > 100 µM
- TGI (M19-MEL melanoma): > 100 µM
- TGI (MOLT-4 leukemia): > 100 µM
- TGI (NCI-H226 lung): > 100 µM
- TGI (NCI-H23 lung): > 100 µM
- TGI (NCI-H460 lung): > 100 µM
- TGI (NCI-H522 lung): > 100 µM
- TGI (OVCAR-3 ovarian): > 100 µM
- TGI (OVCAR-4 ovarian): > 100 µM
- TGI (OVCAR-5 ovarian): > 100 µM
- TGI (OVCAR-8 ovarian): > 100 µM
- TGI (RXF 393 renal): > 100 µM
- TGI (SF-268 CNS): > 100 µM
- TGI (SF-295 CNS): > 100 µM
- TGI (SF-539 CNS): > 100 µM
- TGI (SK-MEL-2 melanoma): > 100 µM
- TGI (SK-MEL-28 melanoma): > 100 µM
- TGI (SK-MEL-5 melanoma): > 100 µM
- TGI (SK-OV-3 ovarian): > 100 µM
- TGI (SN12C renal): > 100 µM
- TGI (SNB-19 CNS): > 100 µM
- TGI (SNB-75 CNS): > 100 µM
- TGI (SNB-78 CNS): > 100 µM
- TGI (SR leukemia): > 100 µM
- TGI (SW-620 colon): > 100 µM
- TGI (TK-10 renal): > 100 µM
- TGI (U251 CNS): > 100 µM
- TGI (UACC-257 melanoma): > 100 µM
- TGI (UACC-62 melanoma): > 100 µM
- TGI (UO-31 renal): > 100 µM
- TGI (XF 498 CNS): > 100 µM

SMILES: CNCC(=O)Nc1ccc2c(c1)C(=O)c1ccc(NC(=O)CNC)cc1C2=O
- TGI (786-0 renal): 15.7 µM
- TGI (A498 renal): 28.5 µM
- TGI (A549 NSCLC): 25.6 µM
- TGI (CAKI-1 renal): 20 µM
- TGI (CCRF-CEM leukemia): 11 µM
- TGI (COLO 205 colon): 11 µM
- TGI (DLD-1 colon): 29.9 µM
- TGI (DMS 114 small cell lung): 7.12 µM
- TGI (DMS 273 small cell lung): 10.7 µM
- TGI (HCC-2998 colon): 14.6 µM
- TGI (HCT-116 colon): 11.9 µM
- TGI (HCT-15 colon): 23.2 µM
- TGI (HOP-62 NSCLC): 9.98 µM
- TGI (HOP-92 NSCLC): 7 µM
- TGI (HT29 colon): 16.2 µM
- TGI (IGROV1 ovarian): 38 µM
- TGI (K-562 leukemia): 7.19 µM
- TGI (KM12 colon): 10.4 µM
- TGI (KM20L2 colon): 21.1 µM
- TGI (LOX IMVI melanoma): 4.17 µM
- TGI (LXFL 529 NSCLC): 12.3 µM
- TGI (M14 melanoma): 11.8 µM
- TGI (MALME-3M melanoma): 12.9 µM
- TGI (MOLT-4 leukemia): 10.1 µM
- TGI (NCI-H226 lung): 20.3 µM
- TGI (NCI-H23 lung): 31.6 µM
- TGI (NCI-H460 lung): 12.3 µM
- TGI (NCI-H522 lung): 4.81 µM
- TGI (OVCAR-3 ovarian): 11.1 µM
- TGI (OVCAR-4 ovarian): 5.68 µM
- TGI (OVCAR-5 ovarian): 34.8 µM
- TGI (OVCAR-8 ovarian): 10.2 µM
- TGI (RXF 393 renal): 20.3 µM
- TGI (SF-295 CNS): 18.6 µM
- TGI (SF-539 CNS): 11.2 µM
- TGI (SK-MEL-2 melanoma): 11.7 µM
- TGI (SK-MEL-28 melanoma): 10.1 µM
- TGI (SK-MEL-5 melanoma): 17.9 µM
- TGI (SK-OV-3 ovarian): 3.81 µM
- TGI (SN12C renal): 11.9 µM
- TGI (SNB-75 CNS): 27.1 µM
- TGI (SNB-78 CNS): 10.7 µM
- TGI (SR leukemia): 7.54 µM
- TGI (SW-620 colon): 12.3 µM
- TGI (TK-10 renal): 44.9 µM
- TGI (U251 CNS): 10.4 µM
- TGI (UACC-257 melanoma): 16.1 µM
- TGI (UACC-62 melanoma): 22.2 µM
- TGI (UO-31 renal): 25.7 µM
- TGI (XF 498 CNS): 8.25 µM

SMILES: O=C1OC(O)c2cc3c(cc21)OCO3 (stereo unspecified)
- TGI (786-0 renal): > 100 µM
- TGI (A498 renal): > 100 µM
- TGI (A549 NSCLC): > 100 µM
- TGI (CAKI-1 renal): > 100 µM
- TGI (CCRF-CEM leukemia): > 100 µM
- TGI (COLO 205 colon): > 100 µM
- TGI (DLD-1 colon): > 100 µM
- TGI (DMS 114 small cell lung): > 100 µM
- TGI (DMS 273 small cell lung): > 100 µM
- TGI (EKVX NSCLC): > 100 µM
- TGI (HCC-2998 colon): > 100 µM
- TGI (HCT-116 colon): > 100 µM
- TGI (HCT-15 colon): > 100 µM
- TGI (HL-60(TB) leukemia): > 100 µM
- TGI (HOP-62 NSCLC): > 100 µM
- TGI (HOP-92 NSCLC): > 100 µM
- TGI (HT29 colon): > 100 µM
- TGI (IGROV1 ovarian): > 100 µM
- TGI (K-562 leukemia): > 100 µM
- TGI (KM12 colon): > 100 µM
- TGI (LOX IMVI melanoma): > 100 µM
- TGI (LXFL 529 NSCLC): > 100 µM
- TGI (M14 melanoma): > 100 µM
- TGI (M19-MEL melanoma): > 100 µM
- TGI (MALME-3M melanoma): > 100 µM
- TGI (MOLT-4 leukemia): > 100 µM
- TGI (NCI-H23 lung): > 100 µM
- TGI (NCI-H460 lung): > 100 µM
- TGI (NCI-H522 lung): > 100 µM
- TGI (OVCAR-3 ovarian): > 100 µM
- TGI (OVCAR-4 ovarian): > 100 µM
- TGI (OVCAR-8 ovarian): > 100 µM
- TGI (RPMI-8226 leukemia): > 100 µM
- TGI (RXF 393 renal): > 100 µM
- TGI (SF-268 CNS): > 100 µM
- TGI (SF-295 CNS): > 100 µM
- TGI (SF-539 CNS): > 100 µM
- TGI (SK-MEL-2 melanoma): > 100 µM
- TGI (SK-MEL-28 melanoma): > 100 µM
- TGI (SK-MEL-5 melanoma): > 100 µM
- TGI (SK-OV-3 ovarian): > 100 µM
- TGI (SN12C renal): > 100 µM
- TGI (SNB-19 CNS): > 100 µM
- TGI (SNB-75 CNS): > 100 µM
- TGI (SNB-78 CNS): > 100 µM
- TGI (SW-620 colon): > 100 µM
- TGI (TK-10 renal): > 100 µM
- TGI (U251 CNS): > 100 µM
- TGI (UACC-257 melanoma): > 100 µM
- TGI (UACC-62 melanoma): > 100 µM
- TGI (UO-31 renal): > 100 µM
- TGI (XF 498 CNS): > 100 µM
